The subject of one test is A549 cells. The experiment in a line: Proliferation Assay (A549 cell viability, Cell Titer Fluor). The class given is cell-based. To be noted: Homo sapiens, 72 hours. The method, boiled down: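 A549 cells seeded at 1000 cells/well, left 24 h, then exposed to compound for 72 h at 37 °C, 5% CO2, final DMSO 0.5% (v/v). Viability read by Cell Titer Fluor fluorescence; EC50 from four-parameter logistic fit.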

For test [1], the target named is T1, purified recombinant human GAC (GLS1) (Homo sapiens, UniProt O94925).
T1 sequence (O94925 55-598 isoform O94925-3 limits assumed): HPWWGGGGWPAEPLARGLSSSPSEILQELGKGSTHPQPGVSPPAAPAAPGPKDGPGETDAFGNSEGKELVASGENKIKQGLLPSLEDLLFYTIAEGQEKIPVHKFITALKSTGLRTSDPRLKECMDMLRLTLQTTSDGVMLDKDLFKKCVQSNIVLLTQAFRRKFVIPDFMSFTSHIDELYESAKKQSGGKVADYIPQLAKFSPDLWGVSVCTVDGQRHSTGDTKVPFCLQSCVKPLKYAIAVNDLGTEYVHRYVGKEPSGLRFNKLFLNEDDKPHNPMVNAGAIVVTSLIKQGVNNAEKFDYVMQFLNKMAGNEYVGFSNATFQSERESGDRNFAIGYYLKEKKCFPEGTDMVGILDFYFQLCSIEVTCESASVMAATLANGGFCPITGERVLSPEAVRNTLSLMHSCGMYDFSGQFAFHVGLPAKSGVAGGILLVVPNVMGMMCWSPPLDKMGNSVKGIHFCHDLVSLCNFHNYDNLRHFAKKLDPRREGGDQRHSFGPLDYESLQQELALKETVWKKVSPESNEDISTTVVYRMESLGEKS
Put plainly: GLS1 Enzymatic Activity Assay (dual-coupled enzymatic assay). The class given is biochemical. In outline: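 GAC activity measured by coupling glutamate to glutamate oxidase and HRP, generating resorufin from Amplex UltraRed. Enzyme (2 nM) preincubated with 50 mM potassium phosphate 10 min at room temperature, then inhibitor 10 min; 1 mM glutamine substrate, 1% DMSO. Fluorescence 530/590 nm, kinetic or 20-min endpoint; IC50 from four-parameter logistic fit.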

SMILES strings stand for the structures. pEC50, pIC50: −log10 of the molar value. Where only a bound is given, the exact number is not on record here.

`Cc1ccc(CNC(=O)c2cn(CCCCc3cc4c(-c5ccc(C(F)(F)F)cc5)c(C5CC5)[nH]c4nn3)nn2)cn1` [Example 163, 1-(4-{6-cyclopropyl-5-[4-(trifluoromethyl)phenyl]-7H-pyrrolo[2,3-c]pyridazin-3-yl}butyl)-N-[(6-methylpyridin-3-yl)methyl]-1H-1,2,3-triazole-4-carboxamide] gave a negative-log EC50 (pEC50) in the test on A549 cells of 6.30 to 7.00. Also, the pIC50 in test [1] is > 7.00.
Compound `CC(C)(O)c1ccc(CNC(=O)c2cn(CCCCc3cc4c(-c5ccc(OC(F)(F)F)cc5)c(C5CC5)[nH]c4nn3)nn2)cn1` [Example 164, 1-(4-{6-cyclopropyl-5-[4-(trifluoromethoxy)phenyl]-7H-pyrrolo[2,3-c]pyridazin-3-yl}butyl)-N-{[6-(2-hydroxypropan-2-yl)pyridin-3-yl]methyl}-1H-1,2,3-triazole-4-carboxamide] gave a negative logarithm of the EC50 (pEC50) in the test on A549 cells of 6.30 to 7.00. Moreover, in test [1], the pIC50 is > 7.00.
Consider `Cc1ccc(CNC(=O)c2cn(CCCCc3cc4c(-c5ccc(OC(F)(F)F)cc5)c(C5CC5)[nH]c4nn3)nn2)cn1` [Example 165, 1-(4-{6-cyclopropyl-5-[4-(trifluoromethoxy)phenyl]-7H-pyrrolo[2,3-c]pyridazin-3-yl}butyl)-N-[(6-methylpyridin-3-yl)methyl]-1H-1,2,3-triazole-4-carboxamide], for which the pEC50 in the test on A549 cells was 6.30 to 7.00. Further, the pIC50 in test [1] was > 7.00.
For `CC(C)(O)c1ccc(CNC(=O)c2cn(CCCCc3cc4c(-c5cccc(C(F)(F)F)c5)c(C5CC5)[nH]c4nn3)nn2)cn1` [Example 166, 1-(4-{6-cyclopropyl-5-[3-(trifluoromethyl)phenyl]-7H-pyrrolo[2,3-c]pyridazin-3-yl}butyl)-N-{[6-(2-hydroxypropan-2-yl)pyridin-3-yl]methyl}-1H-1,2,3-triazole-4-carboxamide] the same measures were 6.30 to 7.00 and > 7.00.
Take `Cc1ccc(CNC(=O)c2cn(CCCCc3cc4c(-c5cccc(C(F)(F)F)c5)c(C5CC5)[nH]c4nn3)nn2)cn1` [Example 167, 1-(4-{6-cyclopropyl-5-[3-(trifluoromethyl)phenyl]-7H-pyrrolo[2,3-c]pyridazin-3-yl}butyl)-N-[(6-methylpyridin-3-yl)methyl]-1H-1,2,3-triazole-4-carboxamide]: the pEC50 with A549 cells was 6.30 to 7.00. Also, the pIC50 in test [1] is > 7.00.
Turning to `COc1ncc(-c2c(C3CC3)[nH]c3nnc(CCCCn4cc(C(=O)NCc5ccc(C)nc5)nn4)cc23)c(OC)n1` [Example 168, 1-{4-[6-cyclopropyl-5-(2,4-dimethoxypyrimidin-5-yl)-7H-pyrrolo[2,3-c]pyridazin-3-yl]butyl}-N-[(6-methylpyridin-3-yl)methyl]-1H-1,2,3-triazole-4-carboxamide], in the test on A549 cells, the pEC50 is 5.30 to 6.30. Further, in test [1], the pIC50 was > 7.00.
For `CC(C)(O)c1ccc(CNC(=O)c2cn(CCCCc3cc4c(-c5cccc(OC(F)(F)F)c5)c(C5CC5)[nH]c4nn3)nn2)cn1` [Example 169, 1-(4-{6-cyclopropyl-5-[3-(trifluoromethoxy)phenyl]-7H-pyrrolo[2,3-c]pyridazin-3-yl}butyl)-N-{[6-(2-hydroxypropan-2-yl)pyridin-3-yl]methyl}-1H-1,2,3-triazole-4-carboxamide], in that order: 6.30 to 7.00 and > 7.00.
The compound `Cc1ccc(CNC(=O)c2cn(CCCCc3cc4c(-c5cccc(OC(F)(F)F)c5)c(C5CC5)[nH]c4nn3)nn2)cn1` [Example 170, 1-(4-{6-cyclopropyl-5-[3-(trifluoromethoxy)phenyl]-7H-pyrrolo[2,3-c]pyridazin-3-yl}butyl)-N-[(6-methylpyridin-3-yl)methyl]-1H-1,2,3-triazole-4-carboxamide] gave a pEC50 in the test on A549 cells of 6.30 to 7.00. Moreover, the pIC50 in test [1] was > 7.00.
As to `CC(C)(O)c1ccc(CNC(=O)c2cn(CCCCc3cc4c(-c5ccoc5)c(C5CC5)[nH]c4nn3)nn2)cn1` [Example 171, 1-{4-[6-cyclopropyl-5-(furan-3-yl)-7H-pyrrolo[2,3-c]pyridazin-3-yl]butyl}-N-{[6-(2-hydroxypropan-2-yl)pyridin-3-yl]methyl}-1H-1,2,3-triazole-4-carboxamide], the pEC50 with A549 cells is > 7.00. In test [1], the pIC50 was > 7.00.
In the case of `Cc1ccc(CNC(=O)c2cn(CCCCc3cc4c(-c5ccoc5)c(C5CC5)[nH]c4nn3)nn2)cn1` [Example 172, 1-{4-[6-cyclopropyl-5-(furan-3-yl)-7H-pyrrolo[2,3-c]pyridazin-3-yl]butyl}-N-[(6-methylpyridin-3-yl)methyl]-1H-1,2,3-triazole-4-carboxamide], the negative-log EC50 (pEC50) in the test on A549 cells is > 7.00. Moreover, the pIC50 in test [1] is > 7.00.
`COc1ncc(-c2c(C3CC3)[nH]c3nnc(CCCCn4cc(C(=O)NCc5cccc(OC(F)(F)F)c5)nn4)cc23)c(OC)n1` [Example 173, 1-{4-[6-cyclopropyl-5-(2,4-dimethoxypyrimidin-5-yl)-7H-pyrrolo[2,3-c]pyridazin-3-yl]butyl}-N-{[3-(trifluoromethoxy)phenyl]methyl}-1H-1,2,3-triazole-4-carboxamide] gave a pEC50 in the test on A549 cells of 6.30 to 7.00. Also, the pIC50 in test [1] is > 7.00.
As for `CC(C)(O)c1ccc(CNC(=O)c2cn(CCCCc3cc4c(C5CC5)c(-c5ccccc5F)[nH]c4nn3)nn2)cn1` [Example 174, 1-{4-[5-cyclopropyl-6-(2-fluorophenyl)-7H-pyrrolo[2,3-c]pyridazin-3-yl]butyl}-N-{[6-(2-hydroxypropan-2-yl)pyridin-3-yl]methyl}-1H-1,2,3-triazole-4-carboxamide], the pEC50 with A549 cells was 6.30 to 7.00. The pIC50 in test [1] was > 7.00.
For `O=C(NCc1cccc(OC(F)(F)F)c1)c1cn(CCCCc2cc3c(-c4ccccn4)c(-c4ccccc4F)[nH]c3nn2)nn1` [Example 175, 1-{4-[6-(2-fluorophenyl)-5-(pyridin-2-yl)-7H-pyrrolo[2,3-c]pyridazin-3-yl]butyl}-N-{[3-(trifluoromethoxy)phenyl]methyl}-1H-1,2,3-triazole-4-carboxamide] the same measures were 5.30 to 6.30 and > 7.00.
The compound `COc1cccc(-c2cc3cc(CCCCn4cc(C(=O)NCc5ccc(C)nc5)nn4)nnc3[nH]2)c1` [Example 176, 1-{4-[6-(3-methoxyphenyl)-7H-pyrrolo[2,3-c]pyridazin-3-yl]butyl}-N-[(6-methylpyridin-3-yl)methyl]-1H-1,2,3-triazole-4-carboxamide] had a pEC50 in the test on A549 cells of 6.30 to 7.00. For the same compound, in test [1], the negative-log IC50 (pIC50) was > 7.00.
In turn, `O=C(NCc1cccc(OC(F)(F)F)c1)c1cn(CCCCc2cc3c(C4CC4)c(-c4ccccn4)[nH]c3nn2)nn1` [Example 177, 1-(4-(5-cyclopropyl-6-(pyridin-2-yl)-7H-pyrrolo[2,3-c]pyridazin-3-yl)butyl)-N-(3-(trifluoromethoxy)benzyl)-1H-1,2,3-triazole-4-carboxamide 2,2,2-trifluoroacetate] had a pEC50 with A549 cells of 5.30 to 6.30. Further, the pIC50 in test [1] was > 7.00.
Turning to `COc1cccnc1-c1c(C2CC2)[nH]c2nnc(CCCCn3cc(C(=O)NCc4cccc(OC(F)(F)F)c4)nn3)cc12` [Example 178, 1-{4-[6-cyclopropyl-5-(3-methoxypyridin-2-yl)-7H-pyrrolo[2,3-c]pyridazin-3-yl]butyl}-N-{[3-(trifluoromethoxy)phenyl]methyl}-1H-1,2,3-triazole-4-carboxamide], the pEC50 in the test with A549 cells is 6.30 to 7.00. For the same compound, the negative-log IC50 (pIC50) in test [1] is > 7.00.
Regarding `CC(=O)Nc1ccc(-c2c(C3CC3)[nH]c3nnc(CCCCn4cc(C(=O)NCc5ccc(C)nc5)nn4)cc23)cc1` [Example 179, 1-{4-[6-cyclopropyl-5-(4-acetamidophenyl)-7H-pyrrolo[2,3-c]pyridazin-3-yl]butyl}-N-[(6-methylpyridin-3-yl)methyl]-1H-1,2,3-triazole-4-carboxamide], the pEC50 in the test with A549 cells is 5.30 to 6.30. For the same compound, the pIC50 in test [1] was > 7.00.
As to `CC(=O)Nc1ccc(-c2c(C3CC3)[nH]c3nnc(CCCCn4cc(C(=O)NCc5cccc(OC(F)(F)F)c5)nn4)cc23)cc1` [Example 180, 1-{4-[6-cyclopropyl-5-(4-acetamidophenyl)-7H-pyrrolo[2,3-c]pyridazin-3-yl]butyl}-N-{[3-(trifluoromethoxy)phenyl]methyl}-1H-1,2,3-triazole-4-carboxamide], the pEC50 in the test on A549 cells was 5.30 to 6.30. The pIC50 in test [1] is > 7.00.
For `NS(=O)(=O)c1cccc(-c2c(C3CC3)[nH]c3nnc(CCCCn4cc(C(=O)NCc5cccc(OC(F)(F)F)c5)nn4)cc23)c1` [Example 181, 1-{4-[6-cyclopropyl-5-(3-sulfamoylphenyl)-7H-pyrrolo[2,3-c]pyridazin-3-yl]butyl}-N-{[3-(trifluoromethoxy)phenyl]methyl}-1H-1,2,3-triazole-4-carboxamide], in that order: 5.30 to 6.30 and > 7.00.
For `Cc1ccc(CNC(=O)c2cn(CCCCc3cc4cc(-c5ccc(OC(F)(F)F)cc5)[nH]c4nn3)nn2)cn1` [Example 182, N-[(6-methylpyridin-3-yl)methyl]-1-(4-{6-[4-(trifluoromethoxy)phenyl]-7H-pyrrolo[2,3-c]pyridazin-3-yl}butyl)-1H-1,2,3-triazole-4-carboxamide], in that order: 6.30 to 7.00 and > 7.00.

For the origin of these results see US20160002248A1, “GLS1 INHIBITORS FOR TREATING DISEASE” (Board of Regents, The University of Texas System, priority 2014, published 2016).
